Assay results reported in patent publication US20230149540A1, “VACCINE PLATFORM FOR THE INDUCTION OF SYSTEMIC IMMUNE RESPONSES” (The Board of Trustees of the Leland Stanford Junior …, priority 2020, published 2023).

Assays:
human MAIT cells = assay: In vitro MAIT cell activation, IFN-γ secretion (FIG. 7); format: cell-based; details: stimulated for 18 h
Procedure: (§1) FIG. 7. In vitro exposure of human or rhesus macaque MAIT cells to their cognate antigen (5-OP-RU) (a highly unstable molecule) or microspheres loaded with 5-OP-RU-loaded MR-1 monomer induced IFN-γ secretion. Representative pseudocolor plots shown are gated on live CD8^+ T cells. Human and rhesus macaque cells were stimulated for 18 h.
(§2) Activation of innate-like T cells and effector memory T cells can be achieved by presentation of their antigen in the context of the appropriate MHC molecule. Streptavidin-coated microspheres were linked to biotinylated monomers of CD1d (type I NKT cells) or MR1 (MAIT cells) to test for induction of activation of these innate-like T cells. […] We then performed an experiment in which mice were intravenously administrated CABs loaded with αGC (positive control), which would induce the expansion of NKT cells, CD1d-αGC-coated microspheres (test group), or were left untreated (negative control) (FIG. 8).

[1] = system: rhesus macaque MAIT cells; assay: as above; format: cell-based; details: stimulated for 18 h
Procedure: as §1, §2

CC(=O)C=Nc1c(NC[C@H](O)[C@H](O)[C@H](O)CO)[nH]c(=O)[nH]c1=O [5-OP-RU]
secretion of IFN-γ by MAIT cells (human MAIT cells): induce secretion of IFN-γ to a similar extent | secretion of IFN-γ by MAIT cells [1]: induce secretion of IFN-γ to a similar extent
